Measurements as given in patent US20210261553A1, “FUSED TETRAZOLES AS LRRK2 INHIBITORS” (E-SCAPE Bio, Inc., priority 2018, published 2021).

Tests used:
[1] = molecular target: T1, Recombinant G2019S-LRRK2 protein (Homo sapiens, UniProt Q5S007, G2019S); experiment: LRRK2 kinase activity assay (LanthaScreen TR-FRET), G2019S mutant; type: biochemical; conditions: 400 nM LRRKtide, 25 μM ATP, 60 min at room temperature
T1 construct: purchased Life Technologies PV4881
Description: (§1) LRRK2 kinase activity was measured using a LanthaScreen™ Kinase Activity Assay from ThermoFisher Scientific. Recombinant wild type or G2019S-LRRK2 protein (Life Technologies, PR8604B or PV4881, respectively), was incubated with a fluorescein-labeled peptide substrate called LRRKtide that is based upon ezrin/radixin/moesin (ERM) (Life Technologies, PV4901) in the presence of ATP and serially diluted compound. After an incubation period of 1 hr, the phosphotransferase activity was stopped and a terbium-labelled anti-pERM antibody (Life Technologies, PV4899) was added to detect the phosphorylation of LRRKtide by measuring the time resolved-Forster resonant energy transfer (TR-FRET) signal from the terbium label on the antibody to the fluorescein tag on LRRKtide, expressed as the 520 nm/495 nm emission ratio. Compound-dependent inhibition of the TR-FRET signal was used to generate a concentration-response curve for IC50 determination.
(§2) The assay was carried out under the following protocol conditions: 1 mM compound in DMSO was serially diluted 1:3, 11 points in DMSO with a Biomek FX and 0.1 μL of the diluted compound was subsequently stamped into the assay plate (384-well format Lumitrac 200, Greiner, 781075) with an Echo Labcyte such that the final compound concentration in the assay was 10 μM to […]. Subsequently, 5 μL of 2× kinase solution (2.9 nM final concentration) was added to the assay plate in assay buffer composed of 50 mM Tris pH 8.5 (Sigma, T6791), 5 mM MgCl2 (Fluka, 63020), 1 mM EGTA (Sigma, E3889), 0.01% BRU-35 (Sigma, P1254) and 2 mM DTT. The reaction was started by addition of 2×ATP/LRRKtide solution in assay buffer such that the final concentration was 400 nM LRRKtide and 25 μM ATP. After 60 min incubation at room temperature, the reaction was stopped by addition of […] containing a final concentration of 2 nM anti-pERM antibody and […]. After a 30 min incubation at RT, the TR-FRET signal was measured on a Wallac 2104 EnVision® multilabel reader at an excitation wavelength of 340 nm and reading emission at 520 nm and 495 nm. The ratio of the 520 nm and 495 nm emission was used to analyze the data.

[2] = molecular target: T2, Recombinant wild type LRRK2 protein (Homo sapiens, UniProt Q5S007); experiment: LRRK2 kinase activity assay (LanthaScreen TR-FRET), wild type; type: biochemical; conditions: 400 nM LRRKtide, 25 μM ATP, 60 min at room temperature; read-out: LRRK2 WT IC50
T2 construct: purchased Life Technologies PR8604B
Description: as §1, §2

T2 sequence (Q5S007 whole entry): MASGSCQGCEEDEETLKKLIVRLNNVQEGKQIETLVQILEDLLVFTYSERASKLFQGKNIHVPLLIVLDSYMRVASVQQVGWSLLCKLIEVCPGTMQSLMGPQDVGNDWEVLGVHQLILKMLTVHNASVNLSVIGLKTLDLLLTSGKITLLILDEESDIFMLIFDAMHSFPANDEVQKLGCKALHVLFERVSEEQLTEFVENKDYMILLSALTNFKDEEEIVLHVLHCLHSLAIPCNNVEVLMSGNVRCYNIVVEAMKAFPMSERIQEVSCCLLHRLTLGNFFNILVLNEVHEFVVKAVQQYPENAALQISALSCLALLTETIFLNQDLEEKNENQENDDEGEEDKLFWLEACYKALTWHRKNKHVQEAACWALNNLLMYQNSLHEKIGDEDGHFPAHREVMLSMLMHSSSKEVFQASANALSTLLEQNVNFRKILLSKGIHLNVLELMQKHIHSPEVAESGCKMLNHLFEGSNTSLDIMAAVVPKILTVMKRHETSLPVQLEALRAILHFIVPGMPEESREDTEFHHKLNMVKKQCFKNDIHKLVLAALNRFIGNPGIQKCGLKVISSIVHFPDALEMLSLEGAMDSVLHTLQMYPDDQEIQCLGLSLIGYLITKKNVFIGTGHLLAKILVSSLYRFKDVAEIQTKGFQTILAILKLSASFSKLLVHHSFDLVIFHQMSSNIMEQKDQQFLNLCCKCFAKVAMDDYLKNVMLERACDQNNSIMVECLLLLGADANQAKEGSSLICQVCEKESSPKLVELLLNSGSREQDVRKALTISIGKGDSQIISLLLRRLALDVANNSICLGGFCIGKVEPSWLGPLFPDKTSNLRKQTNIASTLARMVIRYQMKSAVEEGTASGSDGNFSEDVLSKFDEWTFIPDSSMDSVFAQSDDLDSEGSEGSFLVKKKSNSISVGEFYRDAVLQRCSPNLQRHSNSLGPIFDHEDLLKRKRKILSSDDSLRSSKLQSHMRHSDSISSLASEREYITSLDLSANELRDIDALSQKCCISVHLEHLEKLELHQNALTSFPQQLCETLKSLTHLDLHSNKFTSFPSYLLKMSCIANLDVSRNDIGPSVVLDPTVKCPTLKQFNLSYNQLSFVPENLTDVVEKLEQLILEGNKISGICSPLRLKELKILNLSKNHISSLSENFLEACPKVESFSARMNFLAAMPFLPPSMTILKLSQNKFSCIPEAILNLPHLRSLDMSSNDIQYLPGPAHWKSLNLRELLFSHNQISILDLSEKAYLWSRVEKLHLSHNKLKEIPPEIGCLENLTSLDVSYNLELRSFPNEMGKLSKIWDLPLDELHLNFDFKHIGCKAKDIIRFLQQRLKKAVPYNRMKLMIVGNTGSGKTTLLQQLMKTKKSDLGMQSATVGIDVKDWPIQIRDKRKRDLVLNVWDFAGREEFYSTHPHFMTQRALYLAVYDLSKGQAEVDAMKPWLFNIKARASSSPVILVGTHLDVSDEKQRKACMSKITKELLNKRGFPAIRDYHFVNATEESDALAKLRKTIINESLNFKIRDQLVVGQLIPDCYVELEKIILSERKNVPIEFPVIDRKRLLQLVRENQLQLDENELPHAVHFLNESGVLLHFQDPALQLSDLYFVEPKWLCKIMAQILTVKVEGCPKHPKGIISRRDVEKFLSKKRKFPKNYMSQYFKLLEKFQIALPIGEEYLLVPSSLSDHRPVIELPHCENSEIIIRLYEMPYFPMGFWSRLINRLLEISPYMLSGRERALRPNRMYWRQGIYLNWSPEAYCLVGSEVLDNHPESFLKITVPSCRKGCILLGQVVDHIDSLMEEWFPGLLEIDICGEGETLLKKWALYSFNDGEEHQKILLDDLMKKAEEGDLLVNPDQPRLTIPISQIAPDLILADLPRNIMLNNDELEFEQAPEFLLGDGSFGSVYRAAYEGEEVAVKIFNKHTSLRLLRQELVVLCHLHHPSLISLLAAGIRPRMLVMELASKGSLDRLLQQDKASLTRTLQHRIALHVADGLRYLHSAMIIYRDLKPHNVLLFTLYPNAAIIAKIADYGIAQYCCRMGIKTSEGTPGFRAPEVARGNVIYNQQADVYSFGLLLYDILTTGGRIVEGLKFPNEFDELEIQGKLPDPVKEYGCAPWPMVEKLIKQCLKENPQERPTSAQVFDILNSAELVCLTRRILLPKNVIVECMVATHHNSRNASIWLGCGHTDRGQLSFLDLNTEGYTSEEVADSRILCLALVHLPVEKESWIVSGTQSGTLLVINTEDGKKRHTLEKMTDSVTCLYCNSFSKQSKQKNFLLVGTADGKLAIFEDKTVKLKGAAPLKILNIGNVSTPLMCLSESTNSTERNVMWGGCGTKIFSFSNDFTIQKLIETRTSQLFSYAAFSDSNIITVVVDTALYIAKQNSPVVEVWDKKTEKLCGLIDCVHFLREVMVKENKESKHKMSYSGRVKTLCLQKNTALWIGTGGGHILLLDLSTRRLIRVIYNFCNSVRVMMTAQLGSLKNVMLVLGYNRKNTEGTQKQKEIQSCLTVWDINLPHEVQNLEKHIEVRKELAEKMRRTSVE
T1 sequence (Q5S007 970-2527 G2019S limits assumed): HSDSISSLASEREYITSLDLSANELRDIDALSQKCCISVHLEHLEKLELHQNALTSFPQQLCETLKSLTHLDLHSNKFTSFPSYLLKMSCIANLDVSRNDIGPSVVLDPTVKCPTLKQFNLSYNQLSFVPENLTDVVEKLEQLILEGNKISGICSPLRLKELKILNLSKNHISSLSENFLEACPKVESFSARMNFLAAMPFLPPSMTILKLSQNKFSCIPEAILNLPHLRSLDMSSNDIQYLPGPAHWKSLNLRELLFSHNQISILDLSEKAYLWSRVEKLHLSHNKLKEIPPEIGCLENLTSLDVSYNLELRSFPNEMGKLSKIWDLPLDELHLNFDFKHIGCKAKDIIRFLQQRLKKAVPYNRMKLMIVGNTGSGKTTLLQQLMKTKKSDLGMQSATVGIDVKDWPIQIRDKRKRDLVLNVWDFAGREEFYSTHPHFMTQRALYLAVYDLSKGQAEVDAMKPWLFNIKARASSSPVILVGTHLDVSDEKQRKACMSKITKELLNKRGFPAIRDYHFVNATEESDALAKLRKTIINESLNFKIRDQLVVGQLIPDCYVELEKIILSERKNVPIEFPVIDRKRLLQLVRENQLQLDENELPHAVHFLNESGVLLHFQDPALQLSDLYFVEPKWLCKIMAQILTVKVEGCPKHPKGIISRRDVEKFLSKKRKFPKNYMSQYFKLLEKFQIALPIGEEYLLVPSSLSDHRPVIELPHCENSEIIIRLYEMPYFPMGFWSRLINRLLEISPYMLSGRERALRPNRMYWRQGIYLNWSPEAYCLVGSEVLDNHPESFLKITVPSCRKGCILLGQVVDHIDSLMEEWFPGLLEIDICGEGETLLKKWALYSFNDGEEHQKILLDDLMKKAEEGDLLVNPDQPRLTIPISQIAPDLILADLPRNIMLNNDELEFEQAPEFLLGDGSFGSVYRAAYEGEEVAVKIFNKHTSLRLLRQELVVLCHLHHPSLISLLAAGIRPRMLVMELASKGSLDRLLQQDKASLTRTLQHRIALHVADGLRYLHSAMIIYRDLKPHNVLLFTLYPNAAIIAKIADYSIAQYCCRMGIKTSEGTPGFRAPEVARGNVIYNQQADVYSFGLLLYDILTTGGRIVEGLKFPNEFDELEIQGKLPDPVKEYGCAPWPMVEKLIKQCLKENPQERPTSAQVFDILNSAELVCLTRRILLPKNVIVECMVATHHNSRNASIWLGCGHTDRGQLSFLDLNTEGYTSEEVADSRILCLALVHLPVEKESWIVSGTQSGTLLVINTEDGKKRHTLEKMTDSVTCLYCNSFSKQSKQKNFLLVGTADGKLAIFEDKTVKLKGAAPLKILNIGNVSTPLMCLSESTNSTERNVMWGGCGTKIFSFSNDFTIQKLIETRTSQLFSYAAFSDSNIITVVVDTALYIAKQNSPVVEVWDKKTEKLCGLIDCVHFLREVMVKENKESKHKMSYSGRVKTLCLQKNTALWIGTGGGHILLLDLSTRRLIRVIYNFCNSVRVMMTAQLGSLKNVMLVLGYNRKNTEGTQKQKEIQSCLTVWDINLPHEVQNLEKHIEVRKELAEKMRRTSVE

For `CC1=C(C(=O)Nc2ccc3[nH]ncc3c2)C(C)(C)n2nnnc2N1C` [Example 26, N-(2H-indazol-5-yl)-4,5,7,7-tetramethyl-4,7-dihydrotetrazolo[1,5-a]pyrimidine-6-carboxamide], the IC50 [1] was ≤ 0.1 µM and the IC50 [2] was 1 to 10 µM.
For `CC1=C(C(=O)Nc2ccc3[nH]nc(-c4ccncc4)c3c2)[C@@H](C)n2nnnc2N1C` [Example 27, (R)-4,5,7-trimethyl-N-(3-(pyridin-4-yl)-1H-indazol-5-yl)-4,7-dihydrotetrazolo[1,5-a]pyrimidine-6-carboxamide], the IC50 [1] was ≤ 0.1 µM and the IC50 [2] was ≤ 0.1 µM.
`CC(=O)Nc1[nH]nc2ccc(NC(=O)C3=C(C)N(C)c4nnnn4C3)cc12` [Example 28, N-(3-acetamido-2H-indazol-5-yl)-4,5-dimethyl-4,7-dihydrotetrazolo[1,5-a]pyrimidine-6-carboxamide] was tested, and the IC50 [1] was 1 to 10 µM and the IC50 [2] was > 10 µM.
`CC1=C(C(=O)Nc2ccc3[nH]c(=O)oc3c2)Cn2nnnc2N1C` [Example 30, 4,5-dimethyl-N-(2-oxo-2,3-dihydrobenzo[d]oxazol-6-yl)-4,7-dihydrotetrazolo[1,5-a]pyrimidine-6-carboxamide] was tested, and the IC50 [1] was 1 to 10 µM and the IC50 [2] was > 10 µM.
Work on `CC1=C(C(=O)Nc2ccc3[nH]c(=O)[nH]c3c2)Cn2nnnc2N1C` [Example 31, 4,5-dimethyl-N-(2-oxo-2,3-dihydro-1H-benzo[d]imidazol-5-yl)-4,7-dihydrotetrazolo[1,5-a]pyrimidine-6-carboxamide] yielded an IC50 [1] of 0.1 to 1 µM and an IC50 [2] of 1 to 10 µM.
With `CC1=C(C(=O)Nc2ccc3c(N)nccc3c2)[C@@H](C)n2nnnc2N1C` [Example 42, (R)—N-(1-Aminoisoquinolin-6-yl)-4,5,7-trimethyl-4,7-dihydrotetrazolo[1,5-a]pyrimidine-6-carboxamide] the IC50 [1] was ≤ 0.1 µM and the IC50 [2] was 0.1 to 1 µM.
In the case of `CC1=C(C(=O)Nc2ccc3[nH]c(=O)n(C)c3c2)[C@@H](C)n2nnnc2N1C` [Example 47, (R)-4,5,7-Trimethyl-N-(3-methyl-2-oxo-2,3-dihydro-1H-benzo[d]imidazol-5-yl)-4,7-dihydrotetrazolo[1,5-a]pyrimidine-6-carboxamide], the IC50 [1] is reported as ≤ 0.1 µM and the IC50 [2] is reported as 1 to 10 µM.
With `CC1=C(C(=O)Nc2ccc3c(c2)C(C)(C)NC3=O)[C@@H](C)n2nnnc2N1C` [Example 49, (R)—N-(3,3-Dimethyl-1-oxoisoindolin-5-yl)-4,5,7-trimethyl-4,7-dihydrotetrazolo[1,5-a]pyrimidine-6-carboxamide] the IC50 [1] was > 10 µM and the IC50 [2] was > 10 µM.
`CC1=C(C(=O)Nc2ccc3n[nH]c(NC(=O)Cc4ccc(N(C)C)cc4)c3c2)Cn2nnnc2N1C` [Example 52, N-(3-(2-(4-(Dimethylamino)phenyl)acetamido)-2H-indazol-5-yl)-4,5-dimethyl-4,7-dihydrotetrazolo[1,5-a]pyrimidine-6-carboxamide] was tested, and the IC50 [1] was 0.1 to 1 µM and the IC50 [2] was 1 to 10 µM.
`CC1=C(C(=O)Nc2ccc3[nH]nc(C)c3c2)C(C)(C)n2nnnc2N1C` [Example 60, 4,5,7,7-Tetramethyl-N-(3-methyl-2H-indazol-5-yl)-4,7-dihydrotetrazolo[1,5-a]pyrimidine-6-carboxamide] was tested, and the IC50 [1] was ≤ 0.1 µM and the IC50 [2] was 0.1 to 1 µM.
With `COC(=O)c1c(NC(=O)C2=C(C)N(C)c3nnnn3C2)ccc2n[nH]cc12` [Example 61, Methyl 5-(4,5-dimethyl-4,7-dihydrotetrazolo[1,5-a]pyrimidine-6-carboxamido)-2H-indazole-4-carboxylate] the IC50 [1] was > 10 µM and the IC50 [2] was > 10 µM.
